Test results from patent US4761414A, “Substituted 1H-pyrimido[1,2-a-]-pyrido[3,4-e]pyrazine 6 oxides” (G. D. Searle & Co., priority 1986, dated 1988).
Values after ≈ are worked out from the molar mass of the structure shown. Where two headings read alike, the source gives them in different places.

Key:
[1] = tested on: Campylobacter fetus ss. jejuni ATCC 29428; assay: MIC vs panel of anaerobes; assay type: cell-based; settings: ATCC29428, procedures of Example 40
Peptococcous magnus = assay: MIC vs panel of anaerobes; assay type: cell-based; settings: procedures of Example 40
[2] = tested on: Clostridium perfringens NCTC 8237; assay: microbe, parasite or virus in culture; assay type: cell-based; settings: procedures of Example 40
[3] = tested on: B. fragilis MZ-R ATCC 11295; assay: MIC/MBC against Bacteroides fragilis strain D; assay type: cell-based; settings: for MBC: ATCC11295, 99.9% reduction in viable count; for MIC: ATCC11295, 48 h, 48 hours, 37° C., anaerobic
Method: (§1) The screening panel utilized in this Example consisted of 5 strains of Bacteroides fragilis. All assays were carried out in 96-well microtitre plates. If an isolate was obtained from either a culture collection or clinical source, the isolate was immediately inoculated into Wilkens-Chalgren broth (Oxoid) and incubated at 37° C. in an anaerobic chamber in an atmosphere of 85% nitrogen, 10% carbon dioxide, and 5% hydrogen for 48 hours. At the end of this time, the viable count was about 10^12 organisms/ml broth. A 1 ml aliquot of each culture was placed in an ampoule and quick frozen in acetone-dry ice mixture and stored in liquid nitrogen. When an inoculum was utilized in an assay, one of the ampoules was thawed and diluted with fresh broth to yield a suspension having a count of 5×10^5 organisms/ml. A 100 μl aliquot of this suspension was inoculated into each well of the microtitre plate. A 2 mg sample of the test compound was dissolved in 0.2 ml of a suitable solvent such as dimethylsulfoxide, polyethylene glycol 200 or methanol. […] After addition of the test solution the final inoculum level was 10^5 cells/ml. The plates were incubated for 48 hours at 37° C. in the anaerobic chamber. The Minimum Inhibitory Concentration (MIC) was read visually. The MIC is defined as the lowest concentration at which there is no detectable growth. The Minimum Bactericidal Concentration (MBC) was determined by taking 50 μl aliquot from each well and placing it in fresh medium.

Peptostreptococcus = assay: MIC vs panel of anaerobes; assay type: cell-based; settings: procedures of Example 40
[4] = tested on: Propionebacterium acnes NCTC 737; assay: MIC vs panel of anaerobes; assay type: cell-based; settings: procedures of Example 40
[5] = tested on: Clostridium perfringens NCTC 523; assay: microbe, parasite or virus in culture; assay type: cell-based; settings: Clostridium perfringens, NCTC523, Clostridium perfringens NCTC 523; procedures of Example 40
B. fragilis NCTC 9344 = assay: MIC/MBC against Bacteroides fragilis strain C; assay type: cell-based; settings: for MBC: NCTC9344, 99.9% reduction in viable count; for MIC: NCTC9344, 48 h, 48 hours, 37° C., anaerobic
Method: as §1, with “medium. […] The strains of Bacteroides fragilis utilized in the above procedure are identified by letter in accordance with the following legend: |C B. fragilis NCTC 9344” for “medium.”

[6] = tested on: Bacteroides melanogenicus NCTC 9336; assay: MIC vs panel of anaerobes; assay type: cell-based; settings: NCTC9336, procedures of Example 40
B. fragilis 23745 = settings: Bacteroides fragilis, 23745, in Mus musculus, po, 48 h, log CFU/ml liver homogenate, test compound
[7] = Clostridium perfringens, NCTC8237, Clostridium perfringens NCTC 8237
[8] = read-out: DOSE GIVING 1 LOG REDUCTION (molar), p.o., after infection and twice daily for 2 days
[9] = read-out: DOSE GIVING 1 LOG REDUCTION, p.o., after infection and twice daily for 2 days

SMILES | MIC [1] | MIC (Peptococcous magnus) | MIC [2, 7] | MBC [3] | MIC [3] | MIC (Peptostreptococcus) | MIC [4] | MIC [5] | MBC (B. fragilis NCTC 9344) | MIC (B. fragilis NCTC 9344) | MIC [6] | ED (1 log reduction) (B. fragilis 23745; [8]) | ED (1 log reduction) (B. fragilis 23745; [9]) | MIC ([2]; Clostridium perfringens NCTC 8237)
Cc1ccc(C2=[N+]([O-])c3cccnc3N3CC(C)(C)CN=C23)cc1 [Example 20, 2,3-Dihydro-2,2-dimethyl-5-(4-methylphenyl)-1H-pyrimido[1,2-a]pyrido[3,2-e]pyrazine 6-oxide] | 25 µg/mL (≈ 78 µM) | 25 µg/mL (≈ 78 µM) | 1.5 µg/mL (≈ 4.68 µM) | < 0.8 µg/mL | < 0.8 µg/mL | 50 µg/mL (≈ 156 µM) | > 100 µg/mL | 1.5 µg/mL (≈ 4.68 µM) | 1.5 µg/mL (≈ 4.68 µM) | 1.5 µg/mL (≈ 4.68 µM) | 50 µg/mL (≈ 156 µM) | 13 µmol/kg | 4.2 mg/kg | 
CC1(C)CN=C2C(c3ccccc3)=[N+]([O-])c3cccnc3N2C1 [Example 16, 2,3-Dihydro-2,2-dimethyl-5-phenyl-1H-pyrimido[1,2-a]pyrido[3,2-e]pyrazine 6-oxide] |  | < 0.8 µg/mL |  | 1.5 µg/mL (≈ 4.9 µM) | < 0.8 µg/mL | 25 µg/mL (≈ 81.6 µM) | 100 µg/mL (≈ 326 µM) | < 0.8 µg/mL | 1.5 µg/mL (≈ 4.9 µM) | 1.5 µg/mL (≈ 4.9 µM) | 25 µg/mL (≈ 81.6 µM) | 2.6 µmol/kg | 0.8 mg/kg | 12.5 µg/mL (≈ 40.8 µM)
CC1(C)CN=C2C(c3ccccc3)=[N+]([O-])c3cnccc3N2C1 [Example 15, 2,3-Dihydro-2,2-dimethyl-5-phenyl-1H-pyrimido[1,2-a]pyrido[3,4-e]pyrazine 6-oxide] |  | < 0.8 µg/mL | 12.5 µg/mL (≈ 40.8 µM) | 1.5 µg/mL (≈ 4.9 µM) | < 0.8 µg/mL | 100 µg/mL (≈ 326 µM) | > 100 µg/mL | 1.5 µg/mL (≈ 4.9 µM) | < 0.8 µg/mL | < 0.8 µg/mL | 100 µg/mL (≈ 326 µM) | 13.4 µmol/kg | 4.1 mg/kg | 
CC1(C)CN=C2C(c3ccc(Cl)cc3)=[N+]([O-])c3cccnc3N2C1 [Example 18, 2,3-Dihydro-5-(4-chlorophenyl)-2,2-dimethyl-1H-pyrimido[1,2-a]pyrido[3,2-e]pyrazine 6-oxide] |  | < 0.8 µg/mL | 6.2 µg/mL (≈ 18.2 µM) | < 0.8 µg/mL | < 0.8 µg/mL | 25 µg/mL (≈ 73.4 µM) | 100 µg/mL (≈ 293 µM) | < 0.8 µg/mL | 1.5 µg/mL (≈ 4.4 µM) | 1.5 µg/mL (≈ 4.4 µM) | 25 µg/mL (≈ 73.4 µM) | 53.4 µmol/kg | 17.4 mg/kg | 
CC1(C)CN=C2C(c3ccccc3)=[N+]([O-])c3ccncc3N2C1 [Example 14, 2,3-Dihydro-2,2-dimethyl-5-phenyl-1H-pyrimido[1,2-a]pyrido[4,3-e]pyrazine 6-oxide] | 100 µg/mL (≈ 326 µM) | 100 µg/mL (≈ 326 µM) | 25 µg/mL (≈ 81.6 µM) | 3.1 µg/mL (≈ 10.1 µM) | 3.1 µg/mL (≈ 10.1 µM) | 100 µg/mL (≈ 326 µM) | > 100 µg/mL | 25 µg/mL (≈ 81.6 µM) | 6.2 µg/mL (≈ 20.2 µM) | 6.2 µg/mL (≈ 20.2 µM) | 100 µg/mL (≈ 326 µM) |  |  | 
COc1ccc(C2=[N+]([O-])c3cccnc3N3CC(C)(C)CN=C23)cc1OC [Example 22, 2,3-Dihydro-5-(3,4-dimethoxyphenyl)-2,2-dimethyl-1H-pyrimido[1,2-a]pyrido[3,2-e]pyrazine 6-oxide] | 50 µg/mL (≈ 136 µM) |  | 6.2 µg/mL (≈ 16.9 µM) | < 0.8 µg/mL | < 0.8 µg/mL | 100 µg/mL (≈ 273 µM) | > 100 µg/mL | < 0.8 µg/mL | < 0.8 µg/mL | < 0.8 µg/mL | > 100 µg/mL | 7.3 µmol/kg | 2.7 mg/kg | 
CC1(C)CN=C2C(c3ccc(Cl)cc3)=[N+]([O-])c3cnccc3N2C1 [Example 17, 2,3-Dihydro-5-(4-chlorophenyl)-2,2-dimethyl-1H-pyrimido[1,2-a]pyrido[3,4-e]pyrazine 6-oxide] | 100 µg/mL (≈ 293 µM) |  | 6.2 µg/mL (≈ 18.2 µM) | < 0.8 µg/mL | < 0.8 µg/mL | > 100 µg/mL | > 100 µg/mL | < 0.8 µg/mL | < 0.8 µg/mL | < 0.8 µg/mL | > 100 µg/mL | 9.3 µmol/kg | 3.2 mg/kg | 
